Experimental data from paper PMC2186054 (The Journal of Experimental Medicine, 1981).
“And” between values parts separate entries of the source, which are not always exact repeats. Equal entries are not always repeated.

Assays:
[1] = test system: myeloma protein CAL20 TEPC1035; assay: Quantitative precipitin inhibition assay, CAL20 TEPC1035 with dextran B1498S; assay type: binding, murine; details: for Relative potency: Table II, maltose = 1.0
[2] = molecular target: T1, myeloma protein MOPC104E (Mus musculus, UniProt P01724+P01756); assay: Quantitative precipitin inhibition assay, MOPC104E; assay type: binding, BALB/c mouse; details: 25 µg dextran B1498S
[3] = molecular target: T2, myeloma protein J558 (Mus musculus, UniProt P01724+P01757); assay: Quantitative precipitin inhibition assay, J558; assay type: binding, BALB/c mouse; details: at 0.99 µmol; 15 µg dextran B1498S
[4] = test system: myeloma protein UPC102; assay: Quantitative precipitin inhibition assay, UPC102; assay type: binding, BALB/c mouse; details: at 0.52 µmol; 15 µg dextran B1355S
[5] = molecular target: T1, myeloma protein MOPC104E; details: cited from earlier work
[6] = test system: myeloma protein CAL20 TEPC1035; assay: Quantitative precipitin assay with CAL20 TEPC1035; assay type: binding, murine; details: Table I; 6.5 µg antibody N, total vol 400 µl
[7] = molecular target: T2, myeloma protein J558; assay: Quantitative precipitin assay with J558; assay type: binding, BALB/c mouse; details: Table I; total vol 400 µl
[8] = test system: serum 895 (anti-panosyl-α(1→4)DGlc); assay: Quantitative precipitin assay with antiserum 895; assay type: binding, Rabbit; details: 80 µl undiluted serum, total vol 400 µl
[9] = inhibition of CAL20 TEPC1035-dextran B1498S precipitation

T2 sequence (P01757 whole entry): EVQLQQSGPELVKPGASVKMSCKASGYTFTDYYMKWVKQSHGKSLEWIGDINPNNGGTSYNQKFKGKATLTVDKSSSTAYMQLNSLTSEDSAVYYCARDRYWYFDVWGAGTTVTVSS
T2 sequence (P01724 20-129): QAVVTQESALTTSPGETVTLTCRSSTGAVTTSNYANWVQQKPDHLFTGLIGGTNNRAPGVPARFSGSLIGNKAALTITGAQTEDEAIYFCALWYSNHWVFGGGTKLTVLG
T1 sequence (P01756 whole entry): as the sequence (P01757 whole entry) above, with R100Y, Y101D counted along it
T1 sequence (P01724 20-129): as the sequence (P01724 20-129) above

34-a-u-glucosylisomaltohexaose [I/5]
inhibition of precipitation ([1]; at 0.15 µmol): 47%

OC[C@H]1O[C@H](O[C@H]2[C@H](O)[C@@H](O)C(O)O[C@@H]2CO)[C@H](O)[C@@H](O)[C@@H]1O (mixture of isomers) [Maltose, maltose]
Relative potency [1]: 1.0
activity relative to methyl α-D-glucoside [1, 9]: three times

CC(=O)OC[C@@H](O)[C@@H](O)[C@H](O)[C@@H](O)C=O [6-O-acetyl-glucose, 6-O-acetyl-glucose]
Relative potency [1]: 0.14

O=C[C@H](O)[C@@H](O)[C@H](O[C@@H]1O[C@H](CO)[C@@H](O)[C@H](O)[C@H]1O)[C@H](O)CO [Cellobiose, DGlcβ(1→4)DGlc]
Relative potency [1]: 0.24

OC[C@H]1O[C@H](O[C@H]2[C@@H](OC[C@H]3OC(O)[C@H](O)[C@@H](O)[C@@H]3O)O[C@H](CO)[C@@H](O)[C@@H]2O)[C@H](O)[C@@H](O)[C@@H]1O (stereo partly shown) [DGlcα(1→2)DGlcα(1→6)DGlc]
inhibition of precipitation ([1]; at 0.36 µmol): 15%

OC[C@H]1O[C@H](O[C@@H]2[C@@H](O)[C@@H](OC[C@H]3OC(O)[C@H](O)[C@@H](O)[C@@H]3O)O[C@H](CO)[C@H]2O)[C@H](O)[C@@H](O)[C@@H]1O (stereo partly shown) [DGlcα(1→3)DGlcα(1→6)DGlc]
inhibition of precipitation ([1]; at 0.16 µmol): 40%

OC[C@H]1O[C@H](OC[C@H]2O[C@H](O[C@H]3[C@H](O)[C@@H](CO)OC(O)[C@@H]3O)[C@H](O)[C@@H](O)[C@@H]2O)[C@H](O)[C@@H](O)[C@@H]1O (stereo partly shown) [DGlcα(1→6)DGlcα(1→3)DGlc]
Relative potency [1]: 1.6

OC[C@H]1O[C@H](OC[C@H]2O[C@H](O[C@H]3[C@H](O)[C@@H](O)[C@@H](O[C@H]4[C@H](O)[C@@H](O)C(O)O[C@@H]4CO)O[C@@H]3CO)[C@H](O)[C@@H](O)[C@@H]2O)[C@H](O)[C@@H](O)[C@@H]1O (stereo partly shown) [DGlcα(1→6)DGlcα(1→4)DGlcα(1→4)DGlc]
Relative potency [1]: 2.4
times more potent than the trisaccharide DGlcα(1→6)DGlcα(1→3)DGlc [1, 9]: 1.5 times

OC[C@H]1OC(O)[C@H](O)[C@@H](O)[C@@H]1O (stereo partly shown) [Glucose]
inhibition of precipitation ([1]; at 0.2 µmol): 22%
inhibition of precipitation ([1]; at 0.92 µmol (Table II)): 22%

OC[C@H]1O[C@H](OC[C@H]2O[C@H](OC[C@H]3O[C@H](OC[C@H]4O[C@H](OC[C@H]5OC(O)[C@H](O)[C@@H](O)[C@@H]5O)[C@H](O)[C@@H](O)[C@@H]4O)[C@H](O)[C@@H](O)[C@@H]3O[C@H]3O[C@H](CO)[C@@H](O)[C@H](O)[C@H]3O)[C@H](O)[C@@H](O)[C@@H]2O)[C@H](O)[C@@H](O)[C@@H]1O (stereo partly shown) [II/3, 43-a-v-glucosylisomaltopen taose]
Relative potency [1]: 0.8

OC[C@H]1O[C@H](OC[C@H]2O[C@H](OC[C@H]3O[C@H](OC[C@H]4O[C@H](OC[C@H]5O[C@H](OC[C@H]6O[C@H](OC[C@H]7OC(O)[C@H](O)[C@@H](O)[C@@H]7O)[C@H](O)[C@@H](O)[C@@H]6O)[C@H](O)[C@@H](O)[C@@H]5O)[C@H](O)[C@@H](O)[C@@H]4O)[C@H](O)[C@@H](O)[C@@H]3O)[C@H](O)[C@@H](O)[C@@H]2O)[C@H](O)[C@@H](O)[C@@H]1O (stereo partly shown) [Isomaltoheptaose, isomaltoheptaose]
inhibition of precipitation ([1]; at 0.4 µmol): 35%

OC[C@H]1O[C@H](OC[C@H]2O[C@H](OC[C@H]3O[C@H](OC[C@H]4O[C@H](OC[C@H]5O[C@H](OC[C@H]6OC(O)[C@H](O)[C@@H](O)[C@@H]6O)[C@H](O)[C@@H](O)[C@@H]5O)[C@H](O)[C@@H](O)[C@@H]4O)[C@H](O)[C@@H](O)[C@@H]3O)[C@H](O)[C@@H](O)[C@@H]2O)[C@H](O)[C@@H](O)[C@@H]1O (stereo partly shown) [Isomaltohexaose, isomaltohexaose]
inhibition of precipitation ([1]; at 0.41 µmol): 20%

OC[C@H]1O[C@H](OC[C@H]2O[C@H](OC[C@H]3O[C@H](OC[C@H]4O[C@H](OC[C@H]5OC(O)[C@H](O)[C@@H](O)[C@@H]5O)[C@H](O)[C@@H](O)[C@@H]4O)[C@H](O)[C@@H](O)[C@@H]3O)[C@H](O)[C@@H](O)[C@@H]2O)[C@H](O)[C@@H](O)[C@@H]1O (stereo partly shown) [Isomaltopentaose, isomaltopentaose]
inhibition of precipitation ([1]; at 0.5 µmol): 44%
inhibition of precipitation ([1]; at 0.59 µmol (Table II)): 44%

OC[C@H]1O[C@H](OC[C@H]2OC(O)[C@H](O)[C@@H](O)[C@@H]2O)[C@H](O)[C@@H](O)[C@@H]1O (stereo partly shown) [Isomaltose, isomaltose]
Relative potency [1]: 0.19
activity relative to methyl α-D-glucoside [1, 9]: one-half

OC[C@H]1O[C@H](OC[C@H]2O[C@H](OC[C@H]3OC(O)[C@H](O)[C@@H](O)[C@@H]3O)[C@H](O)[C@@H](O)[C@@H]2O)[C@H](O)[C@@H](O)[C@@H]1O (stereo partly shown) [Isomaltotriose, isomaltotriose]
Relative potency [1]: 0.20

OC[C@H]1O[C@H](O[C@H]2[C@H](O)[C@@H](O)[C@@H](OC[C@H]3OC(O)[C@H](O)[C@@H](O)[C@@H]3O)O[C@@H]2CO)[C@H](O)[C@@H](O)[C@@H]1O (stereo partly shown) [Isopanose, DGlcα(1→4)DGlcα(1→6)DGlc]
Relative potency [1]: 0.35

OC[C@H]1O[C@H](O[C@H]2[C@H](O)[C@@H](O)[C@@H](OC[C@H]3O[C@H](O[C@H]4[C@H](O)[C@@H](O)[C@@H](O[C@H]5[C@H](O)[C@@H](O)[C@@H](OC[C@H]6OC(O)[C@H](O)[C@@H](O)[C@@H]6O)O[C@@H]5CO)O[C@@H]4CO)[C@H](O)[C@@H](O)[C@@H]3O)O[C@@H]2CO)[C@H](O)[C@@H](O)[C@@H]1O (stereo partly shown) [Isopanosylα(1→4)isopanose, DGlcα(1→4)DGlcα(1→6)DGlcα(1→4)DGlcα(1→4)DGlcα(1→6)DGlc]
Relative potency [1]: 1.0
times more potent than isopanose [1, 9]: 2.85 times

OC[C@H]1O[C@H](O[C@H]2C(O)O[C@H](CO)[C@@H](O)[C@@H]2O)[C@H](O)[C@@H](O)[C@@H]1O (stereo partly shown) [Kojibiose, DGlcα(1→2)DGlc]
inhibition of precipitation ([1]; at 0.98 µmol): 20%

OC[C@H]1O[C@H](O[C@H]2[C@H](O)[C@@H](O)[C@@H](O[C@H]3[C@H](O)[C@@H](O)[C@@H](O[C@H]4[C@H](O)[C@@H](O)C(O)O[C@@H]4CO)O[C@@H]3CO)O[C@@H]2CO)[C@H](O)[C@@H](O)[C@@H]1O (stereo partly shown) [Maltotetraose, maltotetraose]
Relative potency [1]: 1.0

OC[C@H]1O[C@H](O[C@@H]2[C@@H](O)[C@@H](O[C@@H]3[C@@H](O)[C@@H](O[C@@H]4[C@@H](O)[C@@H](O[C@H]5[C@H](O)[C@@H](CO)OC(O)[C@@H]5O)O[C@H](CO)[C@H]4O)O[C@H](CO)[C@H]3O)O[C@H](CO)[C@H]2O)[C@H](O)[C@@H](O)[C@@H]1O (stereo partly shown) [Nigeropentaose, nigeropentaose]
Relative potency [1]: 0.29

OC[C@H]1O[C@H](O[C@H]2[C@H](O)[C@@H](CO)OC(O)[C@@H]2O)[C@H](O)[C@@H](O)[C@@H]1O (stereo partly shown) [Nigerose, nigerose]
Relative potency [1]: 0.35
activity relative to methyl α-D-glucoside [1, 9]: equally
inhibition of precipitation of MOPC104E ([2]; at 0.9 µmol): 25%

OC[C@H]1O[C@H](O[C@@H]2[C@@H](O)[C@@H](O[C@@H]3[C@@H](O)[C@@H](O[C@H]4[C@H](O)[C@@H](CO)OC(O)[C@@H]4O)O[C@H](CO)[C@H]3O)O[C@H](CO)[C@H]2O)[C@H](O)[C@@H](O)[C@@H]1O (stereo partly shown) [Nigerotetraose, nigerotetraose]
Relative potency [1]: 0.29
inhibition of precipitation of MOPC104E ([2]; at 0.82 µmol): 75%

OC[C@H]1O[C@H](O[C@@H]2[C@@H](O)[C@@H](O[C@H]3[C@H](O)[C@@H](CO)OC(O)[C@@H]3O)O[C@H](CO)[C@H]2O)[C@H](O)[C@@H](O)[C@@H]1O (stereo partly shown) [Nigerotriose, nigerotriose]
Relative potency [1]: 0.29

OC[C@H]1O[C@H](OC[C@H]2O[C@H](O[C@H]3[C@H](O)[C@@H](O)C(O)O[C@@H]3CO)[C@H](O)[C@@H](O)[C@@H]2O)[C@H](O)[C@@H](O)[C@@H]1O (stereo partly shown) [Panose]
Relative potency [1]: 8.0
times more active than kojibiose [1, 9]: > 42 times
times more potent than the tetrasaccharide DGlcα(1→6)DGlcα(1→4)DGlcα(1→4)DGlc [1, 9]: 3.3 times and 2.5 times
inhibition of precipitation of J558 [3]: 15%
inhibition of precipitation of UPC102 [4]: 15%
inhibition of precipitation of MOPC104E ([2]; up to 0.99 µmol): no inhibition
relative potency at 50% inhibition relative to nigerose as 1.0 on a molar basis [5]: 0.105

OC[C@H]1O[C@H](O[C@H]2O[C@H](CO)[C@@H](O)[C@H](O)[C@H]2O)[C@H](O)[C@@H](O)[C@@H]1O [Trehalose, DGlcα(1→1)DGlc]
inhibition of precipitation ([1]; at 1.1 µmol): No inhibition

Gentiobiose
Relative potency [1]: 0.12

Glycogen
Precipitating power with CAL20 TEPC1035 [6]: -
Precipitating power with J558 [7]: -
Precipitation with serum 895 [8]: precipitated poorly

Pullulan
Precipitating power with CAL20 TEPC1035 [6]: -
Precipitating power with J558 [7]: -
Precipitation with serum 895 [8]: precipitated poorly

maltoheptaose
Relative potency [1]: 2.4

maltohexaose
Relative potency [1]: 2.4

maltopentaose
Relative potency [1]: 1.41

maltotriose
Relative potency [1]: 1.0

nigerohexa-heptaose
Relative potency [1]: 0.33
